Data as given in patent US20250212891A1, “MIXTURES AND COMPOSITIONS COMPRISING PAENIBACILLUS STRAINS OR FUSARICIDINS AND CHEMICAL PESTICIDES” (BASF SE, priority 2016, published 2025).
Where two headings read alike, the source gives them in different places. Positions of bridges follow the written chain, without caps; N, C: chain ends. Non-standard residues stand in square brackets, D forms with d. Residues, ends and D or L forms follow the SMILES beside them. ξ: configuration not given here. *: point of attachment. Pentadecanoyl(3ξ-OH,15-Gua) = N=C(N)NCCCCCCCCCCCCC(O)CC(=O)*; Thr(3ξ) = CC(O)[C@H](N)C(=O)O; ξY = NC(Cc1ccc(O)cc1)C(=O)O

What was measured:
[1] = test system: Pyricularia oryzae; assay type: cell-based; details: Pyrior, single active, 7 days after inoculation
[2] = test system: Botrytis cinerea; experiment: Microtiterplate test against grey mold (Botrci); assay type: cell-based
[3] = test system: Alternaria solani; experiment: Microtiterplate test against early blight (Alteso); assay type: cell-based
[4] = test system: Septoria tritici; experiment: Microtiterplate test against leaf blotch on wheat (Septtr); assay type: cell-based
[5] = test system: Leptosphaeria nodorum; experiment: Microtiterplate test against wheat leaf spots (Leptno); assay type: cell-based
[6] = test system: Septoria tritici (SEPTTR); assay type: in vivo; details: protective application, 360 ppm
[7] = test system: Phytophthora infestans (PHYTIN); assay type: in vivo; details: protective application, 7.2 ppm
[8] = test system: Alternaria solani (ALTESO); experiment: Fungal growth assay in 96 well plates; assay type: cell-based; details: OD 600 nm, about 18° C.
[9] = test system: Botrytis cinerea (BOTRCI); experiment: Fungal growth assay in 96 well plates; assay type: cell-based; details: evaluation 7 days after inoculation, OD 600 nm, about 18° C.; read-out: Fungal growth inhibition (IC50 [μM]) BOTRCI (7 d)
[10] = Botrytis cinerea, 168 h, 0.016 ppm, read-out: Observed efficacy

Compound `CC1(C)CCC(=Cc2ccc(Cl)cc2)C1(O)Cn1cncn1` (stereo not drawn) [Triticonazol, triticonazole, reference compound] has an Observed efficacy ([1]; 4 ppm) of 39% and an inhibition of growth at 0.25 ppm ([2]; Botrytis cinerea, 168 h, 0.25 ppm, read-out: Observed efficacy) of 19%.
With `CC(O)(Cn1cncn1)c1ccc(Oc2ccc(Cl)cc2)cc1C(F)(F)F` (stereo not drawn) [Mefentrifluconazol, 2-[4-(4-chlorophenoxy)-2-(trifluoromethyl)phenyl]-1-(1H-1,2,4-triazol-1-yl) propan-2-ol, reference compound] the Observed efficacy ([3]; 0.016 ppm) was 12%, the Observed efficacy ([4]; 0.001 ppm) was 21% and the Observed efficacy ([5]; 0.001 ppm) was 0%. It also gave an Observed efficacy ([5]; 0.016 ppm) of 29% and an inhibition of growth at 0.016 ppm [2, 10] of 5%.
For prohexadione-calcium [Prohexadion-ca], the Observed efficacy ([1]; 4 ppm) was 4%.
For `Cn1cc(C(=O)Nc2ccccc2-c2cc(F)c(F)c(F)c2)c(C(F)F)n1` [Fluxapyroxad], the Observed efficacy ([2]; 0.016 ppm) was 1%.
In the case of `O=C(NCCc1ncc(C(F)(F)F)cc1Cl)c1ccccc1C(F)(F)F` [Fluopyram], the Observed efficacy ([4]; 0.25 ppm) is reported as 12% and the Observed efficacy ([4]; 1 ppm) is reported as 32%.
`CC1(C)CCC(Cc2ccc(Cl)cc2)C1(O)Cn1cncn1` (stereo not drawn) [Metconazol, metconazole, reference compound] gave an Observed efficacy ([3]; 0.063 ppm) of 45%, an Observed efficacy ([4]; 0.016 ppm) of 25% and an Observed efficacy ([1]; 0.25 ppm) of 23%. It also gave an Observed efficacy ([5]; 0.016 ppm) of 3%, an Observed efficacy ([5]; 0.063 ppm) of 27% and an inhibition of growth at 0.004 ppm ([2]; Botrytis cinerea, 168 h, 0.004 ppm, read-out: Observed efficacy) of 1%. It also gave an inhibition of growth at 0.016 ppm [2, 10] of 9% and an inhibition of growth at 0.063 ppm ([2]; Botrytis cinerea, 168 h, 0.063 ppm, read-out: Observed efficacy) of 29%.
For `N#Cc1c[nH]cc1-c1cccc2c1OC(F)(F)O2` [Fludioxonil], the inhibition of growth at 0.004 ppm ([2]; Botrytis cinerea, 168 h, read-out: Observed efficacy) was 12%.
`Cn1cc(C(=O)Nc2cccc3c2[C@@H]2CC[C@H]3C2=C(Cl)Cl)c(C(F)F)n1` (racemic) [Benzovindiflupyr, benzovindiflupyr, reference compound] showed an Observed efficacy ([3]; 0.016 ppm) of 12%, an Observed efficacy ([4]; 0.25 ppm) of 77% and an Observed efficacy ([1]; 0.016 ppm) of 72%. It also gave an Observed efficacy ([5]; 0.25 ppm) of 26% and an Observed efficacy ([2]; 0.063 ppm) of 17%.
`COCC(=O)N(c1c(C)cccc1C)[C@H](C)C(=O)OC` [Mefenoxam] showed an Observed efficacy ([3]; 1 ppm) of 18% and an Observed efficacy ([2]; 0.063 ppm) of 5%.
`CC1COC(Cn2cncn2)(c2ccc(Oc3ccc(Cl)cc3)cc2Cl)O1` (stereo not drawn) [Difenoconazol] showed an Observed efficacy ([3]; 0.25 ppm) of 67%.
For `CC1OC(=O)[C@@H](C)NC(=O)[C@@H](CCC(N)=O)NC(=O)[C@@H]([C@H](C)O)NC(=O)C(Cc2ccc(O)cc2)NC(=O)[C@@H](C(C)C)NC(=O)[C@H]1NC(=O)CC(O)CCCCCCCCCCCCN=C(N)N` (stereo partly drawn) [Fusaricidin D, fusaricidin D] ({Pentadecanoyl(3ξ-OH,15-Gua)}-[Thr(3ξ)][dV][ξY][dT][dQ][dA]; ester 1-C), the “% efficacy (% fungal attack), head blight on wheat caused by Septoria tritici” value [6] was 50%, the “% efficacy (% fungal attack), late blight on tomato caused by Phytophthora infestans” value [7] was 0% and the IC50 ([8]; evaluation 3 days after inoculation, read-out: Fungal growth inhibition (IC50 [μM]) ALTESO (3 d)) was 1.1 µM. The IC50 ([8]; evaluation 7 days after inoculation, read-out: Fungal growth inhibition (IC50 [μM]) ALTESO (7 d)) was 0.6 µM and the IC50 [9] was 0.5 µM.
